The source of these data is US20100069340A1, “PHARMACEUTICAL COMPOSITIONS OF AN SRC KINASE INHIBITOR AND AN AROMATASE INHIBITOR” (Wyeth, priority 2008, published 2010).

Like-named read-outs stand apart in the source and are kept apart here.

One data set relates to BT474. Briefly: Cell proliferation assay (CellTiter Glo), BT474. The format is cell-based. To be noted: Homo sapiens, BT-474, 168 h, 7 Day assay, charcoal stripped serum, no phenol red. The procedure:
(§1) Cell lines were obtained from ATCC. Estrogen was obtained from SIGMA, 4-hydroxytamoxifen was obtained from SIGMA, Bosutinib was used for these studies. Charcoal-stripped serum and phenol red-free medium was obtained from Invitrogen. CellTiter Glo was obtained from Promega.
Cell cultures. Proliferation assays with cells in complete fetal calf serum were performed with medium containing phenol red. For all assays examining estrogen-dependence, cells were cultured in phenol red-free medium; DMEM/F12 (MCF7), RPMI1640 (MDA-MB-361, T47D) MEM (BT20, MDA-MB-231) McCoys5A modified (SKBR3), Leibowitz' L15 medium supplemented with 10 ng/mL insulin (MDA-MB-435 and MDA-MB-468) with 10% fetal bovine serum supplemented with glutamine and gentamicin. For proliferation assays, trypsinized cells were subjected to three cycles of centrifugation and resuspension in phenol red-free medium supplemented with charcoal stripped medium (5% final), glutamine and Pen/Strep. Cells were plated on day 0, with or without estrogen (10 nM final concentration). On day 1, 4-hydroxytamoxifen and SKI-606 or DMSO were added as a serial dilution. Cells were incubated for 7 days, after which CellTiter Glo (Promega) was added as recommended by the manufacturer. After mixing and two hours incubation on the bench, plates were read on an Envision reader. […]
For orientation: In ATP-based viability assays light output follows the ATP content of the culture.

Another data set can be described thus: clinical. To be noted: for AUC: Mean steady state AUC; for Cmax: Mean steady state Cmax. The procedure: A phase 1 single-agent trial of bosutinib to determine the safety, tolerability, and pharmacokinetics of orally administered bosutinib in subjects with advanced-stage, previously treated, solid tumors is currently ongoing. […] Subjects are continued on bosutinib until disease progression, or the occurrence of a significant toxicity considered possibly related to bosutinib. Dosing was started at 50 mg per day. Subsequent dose levels studied have included 100 mg, 200 mg, 300 mg, 400 mg, 500 mg and 600 mg. Safety is assessed for 21 days in 3 to 6 subjects before beginning the cohort at the next incremental dose.

A further data set deals with BT-20 (ER neg). As to the kind of experiment: Cell proliferation assay (CellTiter Glo), BT-20. It counts as cell-based. The conditions noted are these: for IC50: Homo sapiens, BT-20, 168 h, 7 Day assay, charcoal stripped serum, no phenol red, plateau cell number at 5 μM used. The procedure: as §1
(§2) Cell cultures. Proliferation assays with cells in complete fetal calf serum were performed with medium containing phenol red. For all assays examining estrogen-dependence, cells were cultured in phenol red-free medium; DMEM/F12 (MCF7), RPMI1640 (MDA-MB-361, T47D) MEM (BT20, MDA-MB-231) McCoys5A modified (SKBR3), Leibowitz' L15 medium supplemented with 10 ng/mL insulin (MDA-MB-435 and MDA-MB-468) with 10% fetal bovine serum supplemented with glutamine and gentamicin. For proliferation assays, trypsinized cells were subjected to three cycles of centrifugation and resuspension in phenol red-free medium supplemented with charcoal stripped medium (5% final), glutamine and Pen/Strep. Cells were plated on day 0, with or without estrogen (10 nM final concentration). On day 1, 4-hydroxytamoxifen and SKI-606 or DMSO were added as a serial dilution. Cells were incubated for 7 days, after which CellTiter Glo (Promega) was added as recommended by the manufacturer. After mixing and two hours incubation on the bench, plates were read on an Envision reader. […] The 10 uM data point was dropped for these two lines since there was a clear plateau prior to the sharp drop in luminescence observed at 10 uM compound. The IC50 was calculated using a floating minima corresponding to the lowest luminescence value at 5 uM.
Cell proliferation assays were performed in two formats; a three day proliferation assay in fully supplemented medium with phenol red, and a 7 day proliferation assay in phenol red free medium supplemented with charcoal-stripped medium. […] ER positive T47D cells were slightly more sensitive to SKI-606 in the presence of estrogen. BT20 cells were equally sensitive to SKI-606 in stripped serum medium, regardless of whether estrogen was present. […]

Another data set has as its system MDA-MB-361. As to the kind of experiment: Cell proliferation assay (CellTiter Glo), MDA-MB-361. The format is cell-based. To be noted: for IC50: Homo sapiens. The procedure: as §1, §2
Cell proliferation assays were performed in two formats; a three day proliferation assay in fully supplemented medium with phenol red, and a 7 day proliferation assay in phenol red free medium supplemented with charcoal-stripped medium. […] ER positive T47D cells were slightly more sensitive to SKI-606 in the presence of estrogen. BT20 cells were equally sensitive to SKI-606 in stripped serum medium, regardless of whether estrogen was present.
Proliferation data for SKI-606 in various breast tumor lines in complete medium (10% FCS) and charcoal stripped serum with no phenol red (no E2, E2) with and without 10 nM estrogen. The complete medium data were obtained in 3-day assays, while stripped serum assays were extended for 7 days with one change of medium at day 5. The IC50 values for the BT20 line was calculated using the “plateau” cell number evident at 5 μM SKI-606.

Where [1] appears, read: 10 nM estrogen, read-out: IC50 (uM) E2.
Where [2] appears, read: without estrogen, read-out: IC50 (uM) no E2.

By IC50 is commonly meant the concentration needed to halve the response being measured. In general, Tmax refers to the time from dosing to the highest level. What is called half-life is how long it takes for the measured level to halve. A high value points to slow decline. In general, AUC refers to the area under the concentration-time curve, a measure of exposure. A lower AUC goes with less exposure. One may read the Cmax as the maximum level reached in the sampled fluid or tissue. Take `COc1cc(Nc2c(C#N)cnc3cc(OCCCN4CCN(C)CC4)c(OC)cc23)c(Cl)cc1Cl` [bosutinib]: the IC50 in the data set on BT474 (setting [1]) is 2.32 µM; in the data set on BT474 (setting [2]), 2.22 µM; in the data set with BT-20 (ER neg) (setting [1]), 0.24 µM; in the data set with BT-20 (ER neg) (setting [2]), 0.28 µM; in the data set on MDA-MB-361 (MDA-MB-361, 72 h, 3 Day assay, complete medium (10% FCS), read-out: IC50 (uM) 10% FCS), 2.5 µM; with MDA-MB-361 (MDA-MB-361, 168 h, 7 Day assay, charcoal stripped serum, no phenol red, 10 nM estrogen, read-out: IC50 (uM) E2) it was 0.38 µM. Further, the IC50 in the data set on MDA-MB-361 (MDA-MB-361, 168 h, 7 Day assay, charcoal stripped serum, no phenol red, without estrogen, read-out: IC50 (uM) no E2) was 0.74 µM. The “Mean steady state AUC” value in the data set “clinical” (human, in vivo, po) was determined as 3660 ng·h/mL. Moreover, the “Mean steady state Cmax” value in the data set “clinical” (human, in vivo, po) is 200 ng/mL. In addition, in “clinical” (human, in vivo, po), the “Multiple-dose exposure versus single-dose exposure” value is listed as 2-3 fold. The time to peak (Tmax) in the data set “clinical” (human, in vivo, po) was 3 to 6 h. In “clinical” (human, in vivo, po), this compound showed a half-life of 22 to 25 h. Further, the AUC in the data set “clinical” (human, in vivo, po, 600 mg) stood at 3360 ng·h/mL; in “clinical” (human, in vivo, po), 2580 ng·h/mL. The Cmax is 208 ng/mL in the data set “clinical” (human, in vivo, po, 600 mg) and 157 ng/mL in “clinical” (human, in vivo, po). Also, in “clinical” (in vivo, po), the “Dose limiting toxicities observed” value is “nausea, vomiting, diarrhea, and rash”. In addition, the “protocol-defined maximum tolerable dose” value in “clinical” (subjects with multiple-relapsed solid tumors, oral) came out at 500 mg daily. Further, the “toxicity at maximal concentration” value was “some toxicity was seen” in the data set with BT-20 (ER neg) (10 uM SKI-606, BT20 cells) and “some toxicity was seen” with MDA-MB-361 (10 uM SKI-606, MDA-MB-361 cells). Besides, the “effect on estrogen-dependent and estrogen-independent growth” value in the data set with MDA-MB-361 (MDA-MB-361) is “inhibited estrogen-dependent and estrogen-independent growth”.
